This passage reports Activity and inhibition results from ChEMBL document CHEMBL3994585, “Synthesis of α-santonin derivatives for diminutive effect on T and B-cell proliferation and their structure activity relationships” (Eur J Med Chem, 2017).

Data set [1] concerns T-cell. As to the kind of experiment: Immunostimulant activity in Balb/c mouse T cells assessed as ConA-induced cell proliferation at 100 uM after 48 hrs by MTT assay relative to control. In kind it is ADME, cell-based.
Data set [2] concerns T-cell. As to the kind of experiment: Immunostimulant activity in Balb/c mouse T cells assessed as ConA-induced cell proliferation at 10 uM after 48 hrs by MTT assay relative to control. The format is ADME, cell-based. (Formazan colour is commonly taken as a measure of viable cells.)
Data set [3] has as its system T-cell. Put plainly: Immunostimulant activity in Balb/c mouse T cells assessed as ConA-induced cell proliferation at 1 uM after 48 hrs by MTT assay relative to control. The format is ADME, cell-based.
The test system of data set [4] is B-cell. As to the kind of experiment: Immunosuppressive activity in Balb/c mouse B cells assessed as LPS-induced cell proliferation at 100 uM after 48 hrs by MTT assay relative to control. The format is functional.
For data set [5], the system named is B-cell. As to the kind of experiment: Immunostimulant activity in Balb/c mouse B cells assessed as LPS-induced cell proliferation at 10 uM after 48 hrs by MTT assay relative to control. The format is ADME, cell-based.
In data set [6] the test system is B-cell. As to the kind of experiment: Immunostimulant activity in Balb/c mouse B cells assessed as LPS-induced cell proliferation at 1 uM after 48 hrs by MTT assay relative to control. The format is ADME, cell-based.
Data set [7] concerns T-cell. Put plainly: Cytotoxicity against Balb/c mouse T cells assessed as reduction in cell proliferation at 100 uM after 48 hrs by MTT assay. The format is cell-based.
The test system of data set [8] is T-cell. As to the kind of experiment: Cytotoxicity against Balb/c mouse T cells assessed as reduction in cell proliferation at 10 uM after 48 hrs by MTT assay. In kind it is cell-based.
Data set [9] relates to T-cell. As to the kind of experiment: Cytotoxicity against Balb/c mouse T cells assessed as reduction in cell proliferation at 1 uM after 48 hrs by MTT assay. The format is cell-based.
Data set [10] deals with B-cell. As to the kind of experiment: Cytotoxicity against Balb/c mouse B cells assessed as reduction in cell proliferation at 100 uM after 48 hrs by MTT assay. The format is cell-based.
In data set [11] the test system is B-cell. Put plainly: Cytotoxicity against Balb/c mouse B cells assessed as reduction in cell proliferation at 10 uM after 48 hrs by MTT assay. The format is cell-based.
The subject of data set [12] is B-cell. As to the kind of experiment: Cytotoxicity against Balb/c mouse B cells assessed as reduction in cell proliferation at 1 uM after 48 hrs by MTT assay. In kind it is cell-based.
Data set [13] relates to T-cell. Put plainly: Immunosuppressive activity in Balb/c mouse T cells assessed as ConA-induced cell proliferation at 100 uM after 48 hrs by MTT assay relative to control. In kind it is functional.
Data set [14] concerns T-cell. As to the kind of experiment: Immunosuppressive activity in Balb/c mouse T cells assessed as ConA-induced cell proliferation at 10 uM after 48 hrs by MTT assay relative to control. In kind it is functional.
For data set [15], the system named is T-cell. Put plainly: Immunosuppressive activity in Balb/c mouse T cells assessed as ConA-induced cell proliferation at 1 uM after 48 hrs by MTT assay relative to control. The format is functional.
Data set [16] deals with B-cell. Put plainly: Immunosuppressive activity in Balb/c mouse B cells assessed as LPS-induced cell proliferation at 10 uM after 48 hrs by MTT assay relative to control. The format is functional.
Data set [17] deals with B-cell. Put plainly: Immunosuppressive activity in Balb/c mouse B cells assessed as LPS-induced cell proliferation at 1 uM after 48 hrs by MTT assay relative to control. The format is functional.
In data set [18] the target is Tumor necrosis factor (Homo sapiens) (UniProt P01375). Put plainly: Inhibition of TNFalpha (unknown origin) at 10 uM relative to control.
Data set [19] has the same target. As to the kind of experiment: Inhibition of TNFalpha (unknown origin) at 5 uM relative to control.
Data set [20] shares this target. Put plainly: Inhibition of TNFalpha (unknown origin) at 1 uM relative to control.
The subject of data set [21] is B-cell. As to the kind of experiment: Immunostimulant activity in Balb/c mouse B cells assessed as LPS-induced cell proliferation at 100 uM after 48 hrs by MTT assay relative to control. In kind it is ADME, cell-based.
Data set [22] has as its system T-cell. As to the kind of experiment: Effect on ConA-induced Balb/c mouse T cell proliferation at 10 uM after 48 hrs by MTT assay relative to control. In kind it is functional.

Each structure is given as a SMILES string.

Sequence of Tumor necrosis factor (Homo sapiens) (P01375 whole entry): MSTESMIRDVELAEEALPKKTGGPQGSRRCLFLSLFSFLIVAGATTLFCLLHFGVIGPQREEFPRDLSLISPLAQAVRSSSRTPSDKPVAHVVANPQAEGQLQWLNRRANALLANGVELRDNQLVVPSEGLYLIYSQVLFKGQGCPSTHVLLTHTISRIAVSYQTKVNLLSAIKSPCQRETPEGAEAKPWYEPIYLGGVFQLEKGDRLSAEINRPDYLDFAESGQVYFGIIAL

`Cc1c(N)c(O)c(C)c2c1CC[C@H]1[C@H](C)C(=O)O[C@@H]21`: the Activity is listed as 5.91% in the data set on T-cell [1]; 36.02% in the data set with T-cell [2]; 13.97% in the data set on T-cell [3]; -16.66% with B-cell [4]; 33.33% in the data set on B-cell [5]; 17.52% in the data set on B-cell [6]. Besides, the Activity entry with T-cell [7], in the data set on T-cell [8], in the data set on T-cell [9], in the data set with B-cell [10], in the data set on B-cell [11] and in the data set with B-cell [12] was “Toxic” each time.

Consider `Cc1cc(O)c(C)c2c1CC[C@@H]([C@@H](C)C(=O)Nc1ccc(CC#N)cc1)C2`, for which the Activity is -7.35% in the data set on T-cell [13]; -30.14% in the data set with T-cell [14]; -36.02% in the data set with T-cell [15]; -46.7% with B-cell [4]; -39.56% in the data set on B-cell [16]; -42.3% in the data set with B-cell [17]. The Activity result in the data set on T-cell [7], in the data set on T-cell [8], in the data set with T-cell [9], in the data set on B-cell [10], in the data set on B-cell [11] and in the data set with B-cell [12] was “Toxic” throughout. Also, the inhibition (in general, the relative decrease from the control value, in per cent) in [18] is 17.1%; in data set [19], 4.5%; in data set [20] it was “Below limit of detection”.

In data set [20], `C[C@@H]1C[C@H]2[C@@H]3CCC4=CC(=O)C=C[C@]4(C)[C@@]3(F)[C@@H](O)C[C@]2(C)[C@@]1(O)C(=O)CO` had an inhibition of 49.9%.

On to `CC(=O)OCC(C)C1CCc2c(C)cc(OC(C)=O)c(C)c2C1O` (stereo not given), for which the Activity in the data set with T-cell [1] was 18.55%; in the data set with T-cell [2], 17.52%; in the data set with T-cell [3], 37.11%; with B-cell [21], 5.3%; in the data set on B-cell [5], 1.76%; with B-cell [6], 2.65%. Moreover, the Activity entry is given as “Non-Toxic” in the data set with T-cell [7]; “Toxic” in the data set on T-cell [8]; “Toxic” in the data set on T-cell [9]; “Non-Toxic” in the data set with B-cell [10]; “Toxic” in the data set with B-cell [11]; “Toxic” with B-cell [12].

With `Cc1ccc(NC(=O)[C@H](C)[C@@H]2CCc3c(C)cc(O)c(C)c3C2)cc1O`, the Activity is 9.89% in the data set with T-cell [1]; 3.84% in the data set with T-cell [2]; 11.53% in the data set on T-cell [3]; -29.35% in the data set on B-cell [4]; 11.44% with B-cell [5]; 6.96% in the data set on B-cell [6]. Further, the Activity entry with T-cell [7], with T-cell [8], in the data set with T-cell [9], in the data set on B-cell [10], in the data set with B-cell [11] and with B-cell [12] was “Non-Toxic” each time.

Regarding `CCOC(=O)[C@H](C)C1=Cc2c(C)c(O)cc(C)c2CC1`, the Activity with T-cell [1] is 22.68%; with T-cell [3], 11.34%; with T-cell [22], 0%; in the data set with B-cell [21], 14.15%; in the data set on B-cell [5], 23%; in the data set on B-cell [17] it was -1.76%. Moreover, the Activity result with T-cell [7], with T-cell [8], with T-cell [9], with B-cell [10], in the data set with B-cell [11] and in the data set on B-cell [12] was “Toxic” each time.

On to `COc1cc(C)c2ccc([C@@H](C)C(=O)O)cc2c1C`, for which the Activity with T-cell [1] is on record as 13.07%; in the data set with T-cell [14], -25%; with T-cell [3] it was 9.52%; with B-cell [21], 4.76%; in the data set on B-cell [5] it was 13.33%; in the data set with B-cell [6], 86.66%. The Activity entry in the data set on T-cell [7] is “Non-Toxic”; in the data set on T-cell [8] it was “Toxic”; in the data set with T-cell [9], “Toxic”; in the data set with B-cell [10], “Non-Toxic”; in the data set on B-cell [11], “Toxic”; with B-cell [12], “Toxic”.

For the compound `CC1=C2[C@H]3OC(=O)[C@@H](C)[C@@H]3CC[C@@]2(C)C=CC1=O` [SANTONIN], the Activity in the data set on T-cell [13] was -5.16%; with T-cell [2], 4.48%; with T-cell [15], -36.02%; in the data set with B-cell [4], -33.62%; in the data set on B-cell [16] it was -24.17%; with B-cell [6] it was 20.35%. Further, the Activity entry in the data set with T-cell [7], in the data set on T-cell [8], in the data set on T-cell [9], in the data set on B-cell [10], in the data set on B-cell [11] and in the data set on B-cell [12] was “Non-Toxic” each time. Moreover, the inhibition in data set [18] was 19%; in [19] it was 6.2%; in data set [20], “Below limit of detection”.

As for `Cc1cc(O)c(C)c2c1CCC(C(C)CO)C2O` (stereo not given), the Activity with T-cell [1] is reported as 6.45%; in the data set on T-cell [2], 26.34%; with T-cell [3], 31.18%; with B-cell [4], -11.96%; in the data set on B-cell [5], 8.54%; in the data set with B-cell [6], 14.52%. Also, the Activity entry with T-cell [7], in the data set with T-cell [8], in the data set with T-cell [9], in the data set with B-cell [10], with B-cell [11] and in the data set with B-cell [12] was “Toxic” throughout.

With `Cc1cc(O)c(C)c2c1CCC1C2OC(O)C1C` (stereo not given), the Activity with T-cell [1] is on record as 16.49%; in the data set on T-cell [2], 16.49%; with T-cell [3], 31.95%; with B-cell [4], -12.38%; with B-cell [5] it was 9.73%; in the data set with B-cell [6], 13.27%. The Activity result with T-cell [7], with T-cell [8], with T-cell [9], in the data set with B-cell [10], with B-cell [11] and in the data set on B-cell [12] was “Toxic” each time.

Take `Cc1cc(OCc2cnnn2/C=C/c2ccccc2)c(C)c2c1CC[C@H]1[C@H](C)C(=O)O[C@@H]21`: the Activity is on record as -95.12% in the data set with T-cell [13]; -95.12% with T-cell [14]; -95.12% with T-cell [15]; 48.71% in the data set with B-cell [21]; -7.69% in the data set on B-cell [16]; 36.75% in the data set with B-cell [6].

As to `Cc1cc(O)c(C)c2c1CC[C@@H]([C@@H](C)C(=O)O)C2`, the Activity in the data set with T-cell [1] is recorded as 1.03%; in the data set with T-cell [2] it was 3.09%; in the data set on T-cell [3], 4.12%; in the data set on B-cell [21], 20.35%; in the data set with B-cell [16], -1.76%; with B-cell [6] it was 15.92%. The Activity entry with T-cell [7], with T-cell [8], in the data set with T-cell [9], in the data set on B-cell [10], in the data set on B-cell [11] and with B-cell [12] was “Toxic” throughout.

`CC(=O)OC1=C(C)C2=C3OC(=O)C(C)=C3CC[C@@]2(C)CC1`: the Activity with T-cell [13] is on record as -34.55%; in the data set on T-cell [14] it was -38.23%; with T-cell [15], -30.88%; with B-cell [4] it was -45.6%; in the data set with B-cell [16] it was -42.3%; with B-cell [17], -42.3%. For the same compound, the Activity result in the data set on T-cell [7], in the data set with T-cell [8], in the data set with T-cell [9], in the data set with B-cell [10], in the data set with B-cell [11] and in the data set with B-cell [12] was “Toxic” throughout. The figures for the inhibition in data set [18], in data set [19] and in [20] were 44.9%, 24.1% and 3.03%, respectively.

With `COC(=O)[C@H](C)C1=Cc2c(C)c(OC)cc(C)c2CC1`, the Activity in the data set with T-cell [1] is listed as 22.68%; in the data set on T-cell [3] it was 11.34%; in the data set with T-cell [22], 0%; in the data set on B-cell [21], 14.15%; in the data set with B-cell [5] it was 23%; in the data set on B-cell [17], -1.76%. The Activity result with T-cell [7], in the data set with T-cell [8], with T-cell [9], in the data set with B-cell [10], in the data set with B-cell [11] and with B-cell [12] was “Toxic” in each case.
